tested on: MOLT-4; assay: NCI-60 antiproliferative screen (SRB); type: cell-based; details: Homo sapiens; 10 µM single dose, 48 h; MOLT-4 (Leukemia); read-out: Growth inhibition (%)

Row | SMILES | inhibition at 10 µM
1 | O=C1Nc2ccc(Cl)cc2C1=Cc1ccc(OCc2ccncc2)cc1 (mixture of isomers) [Compound 5o, (E/Z)-5-Chloro-3-[4-(pyridin-4-ylmethoxy)benzylidene] indolin-2-one] | 81.2%

tested on: RPMI-8226; assay: NCI-60 antiproliferative screen (SRB); type: cell-based, human; details: Homo sapiens; 10 µM single dose, 48 h; RPMI-8226 (Leukemia); read-out: Growth inhibition (%)

Row | SMILES | inhibition at 10 µM
2 | O=C1Nc2ccc(Cl)cc2C1=Cc1ccc(OCc2ccncc2)cc1 (mixture of isomers) [Compound 5o, (E/Z)-5-Chloro-3-[4-(pyridin-4-ylmethoxy)benzylidene] indolin-2-one] | 70.5%

tested on: HOP-62; assay: NCI-60 antiproliferative screen (SRB); type: cell-based, human; details: Homo sapiens; 10 µM single dose, 48 h; HOP-62 (NSCLC); read-out: Growth inhibition (%)

Row | SMILES | inhibition at 10 µM
3 | O=C1Nc2ccc(Cl)cc2C1=Cc1ccc(OCc2ccncc2)cc1 (mixture of isomers) [Compound 5o, (E/Z)-5-Chloro-3-[4-(pyridin-4-ylmethoxy)benzylidene] indolin-2-one] | 19.7%

tested on: HCC-2998; assay: NCI-60 antiproliferative screen (SRB); type: cell-based, human; details: Homo sapiens; 10 µM single dose, 48 h; HCC-2998 (Colon); read-out: Growth inhibition (%)

Row | SMILES | inhibition at 10 µM
4 | O=C1Nc2ccc(Cl)cc2C1=Cc1ccc(OCc2ccncc2)cc1 (mixture of isomers) [Compound 5o, (E/Z)-5-Chloro-3-[4-(pyridin-4-ylmethoxy)benzylidene] indolin-2-one] | 12.4%

tested on: HCT-116; assay: NCI-60 antiproliferative screen (SRB); type: cell-based, human; details: Homo sapiens; 10 µM single dose, 48 h; HCT-116 (Colon); read-out: Growth inhibition (%)

Row | SMILES | inhibition at 10 µM
5 | O=C1Nc2ccc(Cl)cc2C1=Cc1ccc(OCc2ccncc2)cc1 (mixture of isomers) [Compound 5o, (E/Z)-5-Chloro-3-[4-(pyridin-4-ylmethoxy)benzylidene] indolin-2-one] | 60.5%

tested on: KM12; assay: NCI-60 antiproliferative screen (SRB); type: cell-based, human; details: Homo sapiens; 10 µM single dose, 48 h; KM12 (Colon); read-out: Growth inhibition (%)

Row | SMILES | inhibition at 10 µM
6 | O=C1Nc2ccc(Cl)cc2C1=Cc1ccc(OCc2ccncc2)cc1 (mixture of isomers) [Compound 5o, (E/Z)-5-Chloro-3-[4-(pyridin-4-ylmethoxy)benzylidene] indolin-2-one] | 60.6%

tested on: SW-620; assay: NCI-60 antiproliferative screen (SRB); type: cell-based, human; details: Homo sapiens; 10 µM single dose, 48 h; SW-620 (Colon); read-out: Growth inhibition (%)

Row | SMILES | inhibition at 10 µM
7 | O=C1Nc2ccc(Cl)cc2C1=Cc1ccc(OCc2ccncc2)cc1 (mixture of isomers) [Compound 5o, (E/Z)-5-Chloro-3-[4-(pyridin-4-ylmethoxy)benzylidene] indolin-2-one] | 48.3%

tested on: SF-295; assay: NCI-60 antiproliferative screen (SRB); type: cell-based, human; details: Homo sapiens; 10 µM single dose, 48 h; SF-295 (CNS); read-out: Growth inhibition (%)

Row | SMILES | inhibition at 10 µM
8 | O=C1Nc2ccc(Cl)cc2C1=Cc1ccc(OCc2ccncc2)cc1 (mixture of isomers) [Compound 5o, (E/Z)-5-Chloro-3-[4-(pyridin-4-ylmethoxy)benzylidene] indolin-2-one] | 44.2%

tested on: SF-539; assay: NCI-60 antiproliferative screen (SRB); type: cell-based, human; details: Homo sapiens; 10 µM single dose, 48 h; SF-539 (CNS); read-out: Growth inhibition (%)

Row | SMILES | inhibition at 10 µM
9 | O=C1Nc2ccc(Cl)cc2C1=Cc1ccc(OCc2ccncc2)cc1 (mixture of isomers) [Compound 5o, (E/Z)-5-Chloro-3-[4-(pyridin-4-ylmethoxy)benzylidene] indolin-2-one] | 44%

tested on: U251; assay: NCI-60 antiproliferative screen (SRB); type: cell-based, human; details: Homo sapiens, U-251; 10 µM single dose, 48 h; U251 (CNS); read-out: Growth inhibition (%)

Row | SMILES | inhibition at 10 µM
10 | O=C1Nc2ccc(Cl)cc2C1=Cc1ccc(OCc2ccncc2)cc1 (mixture of isomers) [Compound 5o, (E/Z)-5-Chloro-3-[4-(pyridin-4-ylmethoxy)benzylidene] indolin-2-one] | 66.9%

tested on: MALME-3M; assay: NCI-60 antiproliferative screen (SRB); type: cell-based, human; details: Homo sapiens; 10 µM single dose, 48 h; MALME-3M (Melanoma); read-out: Growth inhibition (%)

Row | SMILES | inhibition at 10 µM
11 | O=C1Nc2ccc(Cl)cc2C1=Cc1ccc(OCc2ccncc2)cc1 (mixture of isomers) [Compound 5o, (E/Z)-5-Chloro-3-[4-(pyridin-4-ylmethoxy)benzylidene] indolin-2-one] | 43%

tested on: M14; assay: NCI-60 antiproliferative screen (SRB); type: cell-based, human; details: Homo sapiens; 10 µM single dose, 48 h; M14 (Melanoma); read-out: Growth inhibition (%)

Row | SMILES | inhibition at 10 µM
12 | O=C1Nc2ccc(Cl)cc2C1=Cc1ccc(OCc2ccncc2)cc1 (mixture of isomers) [Compound 5o, (E/Z)-5-Chloro-3-[4-(pyridin-4-ylmethoxy)benzylidene] indolin-2-one] | 33%

tested on: SK-MEL-2; assay: NCI-60 antiproliferative screen (SRB); type: cell-based, human; details: Homo sapiens; 10 µM single dose, 48 h; SK-MEL-2 (Melanoma); read-out: Growth inhibition (%)

Row | SMILES | inhibition at 10 µM
13 | O=C1Nc2ccc(Cl)cc2C1=Cc1ccc(OCc2ccncc2)cc1 (mixture of isomers) [Compound 5o, (E/Z)-5-Chloro-3-[4-(pyridin-4-ylmethoxy)benzylidene] indolin-2-one] | 4.23%

tested on: SK-MEL-28; assay: NCI-60 antiproliferative screen (SRB); type: cell-based, human; details: Homo sapiens; 10 µM single dose, 48 h; SK-MEL-28 (Melanoma); read-out: Growth inhibition (%)

Row | SMILES | inhibition at 10 µM
14 | O=C1Nc2ccc(Cl)cc2C1=Cc1ccc(OCc2ccncc2)cc1 (mixture of isomers) [Compound 5o, (E/Z)-5-Chloro-3-[4-(pyridin-4-ylmethoxy)benzylidene] indolin-2-one] | 14.5%

tested on: UACC-257; assay: NCI-60 antiproliferative screen (SRB); type: cell-based, human; details: Homo sapiens; 10 µM single dose, 48 h; UACC-257 (Melanoma); read-out: Growth inhibition (%)

Row | SMILES | inhibition at 10 µM
15 | O=C1Nc2ccc(Cl)cc2C1=Cc1ccc(OCc2ccncc2)cc1 (mixture of isomers) [Compound 5o, (E/Z)-5-Chloro-3-[4-(pyridin-4-ylmethoxy)benzylidene] indolin-2-one] | 23.7%

tested on: OVCAR-3; assay: NCI-60 antiproliferative screen (SRB); type: cell-based, human; details: Homo sapiens; 10 µM single dose, 48 h; OVCAR-3 (Ovarian); read-out: Growth inhibition (%)

Row | SMILES | inhibition at 10 µM
16 | O=C1Nc2ccc(Cl)cc2C1=Cc1ccc(OCc2ccncc2)cc1 (mixture of isomers) [Compound 5o, (E/Z)-5-Chloro-3-[4-(pyridin-4-ylmethoxy)benzylidene] indolin-2-one] | 67.4%

tested on: OVCAR-5; assay: NCI-60 antiproliferative screen (SRB); type: cell-based, human; details: Homo sapiens; 10 µM single dose, 48 h; OVCAR-5 (Ovarian); read-out: Growth inhibition (%)

Row | SMILES | inhibition at 10 µM
17 | O=C1Nc2ccc(Cl)cc2C1=Cc1ccc(OCc2ccncc2)cc1 (mixture of isomers) [Compound 5o, (E/Z)-5-Chloro-3-[4-(pyridin-4-ylmethoxy)benzylidene] indolin-2-one] | -14.4%

tested on: OVCAR-8; assay: NCI-60 antiproliferative screen (SRB); type: cell-based, human; details: Homo sapiens; 10 µM single dose, 48 h; OVCAR-8 (Ovarian); read-out: Growth inhibition (%)

Row | SMILES | inhibition at 10 µM
18 | O=C1Nc2ccc(Cl)cc2C1=Cc1ccc(OCc2ccncc2)cc1 (mixture of isomers) [Compound 5o, (E/Z)-5-Chloro-3-[4-(pyridin-4-ylmethoxy)benzylidene] indolin-2-one] | 61.5%

tested on: NCI/ADR-RES; assay: NCI-60 antiproliferative screen (SRB); type: cell-based, human; details: Homo sapiens; 10 µM single dose, 48 h; NCI/ADR-RES (Ovarian); read-out: Growth inhibition (%)

Row | SMILES | inhibition at 10 µM
19 | O=C1Nc2ccc(Cl)cc2C1=Cc1ccc(OCc2ccncc2)cc1 (mixture of isomers) [Compound 5o, (E/Z)-5-Chloro-3-[4-(pyridin-4-ylmethoxy)benzylidene] indolin-2-one] | 67.6%

tested on: A498; assay: NCI-60 antiproliferative screen (SRB); type: cell-based, human; details: Homo sapiens; 10 µM single dose, 48 h; A498 (Renal); read-out: Growth inhibition (%)

Row | SMILES | inhibition at 10 µM
20 | O=C1Nc2ccc(Cl)cc2C1=Cc1ccc(OCc2ccncc2)cc1 (mixture of isomers) [Compound 5o, (E/Z)-5-Chloro-3-[4-(pyridin-4-ylmethoxy)benzylidene] indolin-2-one] | 1.01%

tested on: CAKI-1; assay: NCI-60 antiproliferative screen (SRB); type: cell-based, human; details: Homo sapiens; 10 µM single dose, 48 h; CAKI-1 (Renal); read-out: Growth inhibition (%)

Row | SMILES | inhibition at 10 µM
21 | O=C1Nc2ccc(Cl)cc2C1=Cc1ccc(OCc2ccncc2)cc1 (mixture of isomers) [Compound 5o, (E/Z)-5-Chloro-3-[4-(pyridin-4-ylmethoxy)benzylidene] indolin-2-one] | 38.7%

tested on: RXF 393; assay: NCI-60 antiproliferative screen (SRB); type: cell-based, human; details: Homo sapiens; 10 µM single dose, 48 h; RXF 393 (Renal); read-out: Growth inhibition (%)

Row | SMILES | inhibition at 10 µM
22 | O=C1Nc2ccc(Cl)cc2C1=Cc1ccc(OCc2ccncc2)cc1 (mixture of isomers) [Compound 5o, (E/Z)-5-Chloro-3-[4-(pyridin-4-ylmethoxy)benzylidene] indolin-2-one] | 73.8%

tested on: UO-31; assay: NCI-60 antiproliferative screen (SRB); type: cell-based, human; details: Homo sapiens; 10 µM single dose, 48 h; UO-31 (Renal); read-out: Growth inhibition (%)

Row | SMILES | inhibition at 10 µM
23 | O=C1Nc2ccc(Cl)cc2C1=Cc1ccc(OCc2ccncc2)cc1 (mixture of isomers) [Compound 5o, (E/Z)-5-Chloro-3-[4-(pyridin-4-ylmethoxy)benzylidene] indolin-2-one] | 51.1%

tested on: PC-3; assay: NCI-60 antiproliferative screen (SRB); type: cell-based, human; details: Homo sapiens; 10 µM single dose, 48 h; PC-3 (Prostate); read-out: Growth inhibition (%)

Row | SMILES | inhibition at 10 µM
24 | O=C1Nc2ccc(Cl)cc2C1=Cc1ccc(OCc2ccncc2)cc1 (mixture of isomers) [Compound 5o, (E/Z)-5-Chloro-3-[4-(pyridin-4-ylmethoxy)benzylidene] indolin-2-one] | 52.4%

tested on: DU-145; assay: NCI-60 antiproliferative screen (SRB); type: cell-based, human; details: Homo sapiens; 10 µM single dose, 48 h; DU-145 (Prostate); read-out: Growth inhibition (%)

Row | SMILES | inhibition at 10 µM
25 | O=C1Nc2ccc(Cl)cc2C1=Cc1ccc(OCc2ccncc2)cc1 (mixture of isomers) [Compound 5o, (E/Z)-5-Chloro-3-[4-(pyridin-4-ylmethoxy)benzylidene] indolin-2-one] | 49.3%

tested on: MCF7; assay: NCI-60 antiproliferative screen (SRB); type: cell-based, human; details: Homo sapiens; 10 µM single dose, 48 h; MCF7 (Breast); read-out: Growth inhibition (%)

Row | SMILES | inhibition at 10 µM
26 | O=C1Nc2ccc(Cl)cc2C1=Cc1ccc(OCc2ccncc2)cc1 (mixture of isomers) [Compound 5o, (E/Z)-5-Chloro-3-[4-(pyridin-4-ylmethoxy)benzylidene] indolin-2-one] | 92.8%

tested on: MDA-MB-231; assay: NCI-60 antiproliferative screen (SRB); type: cell-based, human; details: Homo sapiens; 10 µM single dose, 48 h; MDA-MB-231 (Breast); read-out: Growth inhibition (%)

Row | SMILES | inhibition at 10 µM
27 | O=C1Nc2ccc(Cl)cc2C1=Cc1ccc(OCc2ccncc2)cc1 (mixture of isomers) [Compound 5o, (E/Z)-5-Chloro-3-[4-(pyridin-4-ylmethoxy)benzylidene] indolin-2-one] | 24.9%

tested on: MDA-MB-468; assay: NCI-60 antiproliferative screen (SRB); type: cell-based, human; details: Homo sapiens; 10 µM single dose, 48 h; MDA-MB-468 (Breast); read-out: Growth inhibition (%)

Row | SMILES | inhibition at 10 µM
28 | O=C1Nc2ccc(Cl)cc2C1=Cc1ccc(OCc2ccncc2)cc1 (mixture of isomers) [Compound 5o, (E/Z)-5-Chloro-3-[4-(pyridin-4-ylmethoxy)benzylidene] indolin-2-one] | 44.9%

tested on: SR; assay: NCI-60 antiproliferative screen (SRB); details: Homo sapiens, 48 h, read-out: Growth inhibition (%)

Row | SMILES | inhibition at 10 µM
29 | O=C1Nc2ccc(Cl)cc2C1=Cc1ccc(OCc2ccncc2)cc1 (mixture of isomers) [Compound 5o, (E/Z)-5-Chloro-3-[4-(pyridin-4-ylmethoxy)benzylidene] indolin-2-one] | 88.9%

tested on: OVCAR-4; assay: NCI-60 antiproliferative screen (SRB); details: Homo sapiens, OVCAR-4, 48 h, read-out: Growth inhibition (%)

Row | SMILES | inhibition at 10 µM
30 | O=C1Nc2ccc(Cl)cc2C1=Cc1ccc(OCc2ccncc2)cc1 (mixture of isomers) [Compound 5o, (E/Z)-5-Chloro-3-[4-(pyridin-4-ylmethoxy)benzylidene] indolin-2-one] | 47.3%

From publication PMC11124822, “Discovery and Anticancer Screening of Novel Oxindole-Based Derivative Bearing Pyridyl Group as Potent and Selective Dual FLT3/CDK2 Kinase Inhibitor” (Pharmaceuticals, 2024)
